Where “and” joins values, the source holds several entries; their conditions need not be identical. Identical values can stand only once. Like-named read-outs stand apart in the source and are kept apart here.

Test [1] concerns the target T1, NMDA receptor glycine site (Rattus norvegicus, UniProt P35439).
T1 construct: The rat brain membranes used in the experiments were obtained from Analytical Biological Services Inc; tissue Analytical Biological Services Inc; host or cells: rat brain membranes (cerebral cortex and hippocampus, male Sprague Dawley rats)
Description: Test A: Inhibition of binding of [3H]-MDL105,519 to brain membranes. The text has this: Test A: Inhibition of Binding of [^3H]-MDL105,519:
Binding of compounds to the NMDA receptor glycine site may be assessed by measuring the ability of test compounds to inhibit the binding of tritiated MDL105,519 to brain membranes bearing the receptor.
Briefly, fresh brain tissue including cerebral cortex and hippocampus from male Sprague Dawley rats was homogenized in 0.32 M sucrose and centrifuged at low speed to separate cellular membranes from other cellular components. The membranes were then washed 3 times using deionized water, followed by treatment with 0.04% Triton X-100. Finally, membranes were washed six times in 50 mM Tris citrate buffer, pH 7.4, and frozen at −80° C. until use.
[^3H]MDL105,519 (72 Ci/mmol) was purchased from Amersham. Cold MDL105,519 was purchased from Sigma/RBI. […] On the day of the experiment, brain membranes were thawed at room temperature and suspended in 50 mM tris acetate buffer, pH 7.4 (“TAB”). Seventy-five micro grams per milliliter protein (by using the BioRad dye) were used for competition binding. The experiments were carried out using 96-well plates. […] Non specific binding was determined by using 100 μM of unlabeled MDL105,519. […] After incubation, unbound [^3H]MDL105,519 was removed by filtration onto GF/B Unifilter plates using a Packard harvester. Filters were washed four times with ice cold TAB (total of 1.2 mL buffer). The plates were dried overnight at room temperature and bound radioactivity was measured on a Packard TopCount after the addition of 45 μL per well of the MICROSCINT O.
Human Brain Membranes: Human brain membranes were obtained from Analytical Biological Services Inc., and assays were performed as described for rat membranes.
Data analysis: Data was analyzed using a Microsoft Excel spreadsheet and GraphPad Prizm software and potency of compounds is expressed as the Ki (nM).

For test [2], the system named is CCI rats (thermal hyperalgesia). Put plainly: Test C: Neuropathic pain model (Chronic Constriction Injury), thermal hyperalgesia, paw withdrawal latency. The test is classed as in vivo, rat. The note with it: oral; for Test C (% Inh.): percent decrease in hyperalgesia: at the MED; for Test C MED (minimum effective dose): three times daily for 5 days. The text has this:
Test C: Neuropathic Pain Model (Chronic Constriction Injury):
The anti-hyperalgesic properties of a compound may be tested with the Chronic Constriction Injury (“CCI”) model. The test is a model for neuropathic pain associated with nerve injuries that can arise directly from trauma and compression, or indirectly from a wide range of diseases such as infection, cancer, metabolic conditions, toxins, nutritional deficiencies, immunological dysfunction, and musculoskeletal changes. In the model a unilateral peripheral hyperalgesia is produced in rats by nerve ligation (G. J. Bennett, et al., Pain 33, 87-107 (1988)).
Procedurally, Sprague-Dawley rats (250-350 g) are anesthetized with sodium pentobarbital and the common sciatic nerve is exposed at the level of the mid thigh by blunt dissection through the biceps femoris. A section of nerve (about 7 mm), proximal to the sciatic trifucation, is freed of tissue and ligated at four positions with chromic gut suture. The suture is tied with about 1 mm spacing between ligatures. The incision is closed in layers and the animals are allowed to recuperate. Thermal hyperalgesia is measured using a paw-withdrawal test (K. Hargreaves, et al., Pain 32, 77-88 (1988)). To perform the test, animals are habituated on an elevated glass floor. A radiant heat source is aimed at the mid-plantar hindpaw (sciatic nerve territory) through the glass floor with a 20 second cut-off used to prevent injury to the skin. The latencies for the withdrawal reflex in both hind paws are recorded.
Injured paws with ligated nerves show shorter paw withdrawal latencies compared to the uninjured or sham operated paws. Responses to test compounds are evaluated at different times after oral administration to determine the onset and duration of compound effect. When performing the test, groups of CCI rats receive either vehicle or the test compound orally three times daily for 5 days. Paw withdrawal latencies are measured each day 10 min before and 2 or 3 hr. after the first daily dose. Compound efficacy is expressed as mean percentage decrease of hyperalgesia compared to that of vehicle-treated animals, calculated as follows:
(Mean of vehicle group−Mean of compound group)×100/(Mean of vehicle group).
Data analysis was performed by the multiple means comparison test (Dunnett's test) and results are expressed and compound potencies are expressed as the MED (minimum effective dose), in mg/Kg/day, that yields a percent (%) decrease in hyperalgesia that is statistically significant.

The subject of test [3] is formalin-induced nociceptive behaviors in rats. Put plainly: Test B: Formalin test (formalin-induced paw flinches). The note with it: dose 200 (unit not given), dosed three hours prior to formalin. The format is in vivo, rat. The text has this: The Formalin test is an assay that assesses the capacity of a compound to inhibit formalin-induced nociceptive behaviors in rats (D. Dubuisson, et al., Pain 4, 161-174 (1977); H. Wheeler-Aceto et al., Psychopharmacology 104, 3544 (1991); T. J. Coderre, et al., Pain 54, 43-50 (1993)). In the test, two distinctive phases of formalin-induced behaviors are observed. A first phase response, caused by acute nociception to the noxious chemical (formalin) injected into the paw, occurs between zero and five minutes. A quiescent period of 5 to 15 min post injection follows. After the quiescent period a second phase response, caused by sensitization of the central neurons in the dorsal horn, occurs after 15 minutes and lasts up to 60 minutes. Sensitization of the central neurons in the spine augments a noxious afferent input and causes a stronger pain barrage to be transmitted to the brain. Therefore, inhibition of the second phase response indicates a central mechanism of drug action.
The procedure for the formalin test is as follows: male rats are placed in a plexiglass chamber and observed for 30-45 min. to observe their baseline activity. Animals are either pretreated with vehicle or with different doses of a test compound. Animals are dosed with vehicle or test compound three hours prior to injection of 0.05 mL of sterile 1% formalin under the dorsal skin of a hind paw. The number of paw flinches (responses) during the first phase (0-5 min.) and the second phase (20-35 min.) are scored and recorded. Flinch response is compared with the mean score of a saline control group and calculated as percentage inhibition. The ED50 is the dose of compound which produces 50% inhibition of nociceptive response in the first or second phase response. First phase responses may be inhibited by compounds that act peripherally and by compounds that act centrally. Second phase response are inhibited by centrally active compounds.
Student's t-test was used for statistical analysis to determine the significance of compound effects. Data are reported as a dose that yielded a % inhibition of a response.

Setting [4] is: inhibition of 1.2 nM [3H]MDL105,519 binding, brain membranes (rat or human not given).

A word on the Ki: it is the equilibrium dissociation constant of an inhibitor or competing ligand from its target. In turn, `COC(=O)c1c(OC)cc(Cn2nc(O)c3[nH]c4cc(Cl)ccc4c(=O)c3c2=O)cc1OC` [Ex. 8, 7-Chloro-2-(4-(2,6-dimethoxy)methylbenzoate)4hydroxy-1,2,5,10-tetrahydropyridazino[4,5-b]quinoline-1,10-dione] yielded a Ki in test [1] (setting [4]) of 0.035 µM.
`CNC(=O)c1cccc(Cn2nc(O)c3[nH]c4cc(Cl)ccc4c(=O)c3c2=O)c1` [Ex. 25, 7-Chloro-4-hydroxy-2-[3-(methylaminocarbonyl)-benzyl]-1,2,5,10-tetrahydropyridazino[4,5-b]quinoline-1,10-dione]: the affinity in test [1] (setting [4]) corresponds to a Ki of 0.126 µM.
Still for that read-out and setting: the same measure for `COCCNC(=O)c1ccc(Cn2nc(O)c3[nH]c4cc(Cl)ccc4c(=O)c3c2=O)cc1` [Ex. 23]: 0.141 µM; for `CC(C)NC(=O)c1ccc(Cn2nc(O)c3[nH]c4cc(Cl)ccc4c(=O)c3c2=O)cc1` [EX. 31, 7-chloro-4-hydroxy-2-(4-isopropylcarboxamide)phenylmethyl-1,2,5,10-tetrahydropyridazino[4,5-b]quinoline-1,10-dione]: 0.041 µM.
For the compound `CC(=O)Nc1ccc(Cn2nc(O)c3[nH]c4cc(Cl)ccc4c(=O)c3c2=O)cc1` [Ex. 30, 7-Chloro-4-hydroxy-2-[4-(methylcarbonyl-amino)-benzyl]-1,2,5,10-tetrahydropyridazino[4,5-b]quinoline-1,10-dione], in test [1] (setting [4]), the Ki amounted to 0.098 µM.
On to `CN(C)C(=O)Nc1ccc(Cn2nc(O)c3[nH]c4cc(Cl)ccc4c(=O)c3c2=O)cc1` [Ex. 11, 7-chlorohydroxy-2-(4-dimethylaminocarboxamide)phenylmethyl-1,2,5,10-tetrahydropyridazino[4,5-b]quinoline-1,10-dione], for which, in test [2], the “Test C (% Inh.): percent decrease in hyperalgesia” value turned out to be 80% and the “Test C MED (minimum effective dose)” value turned out to be 15 mg/kg/day.
On to `O=C(Nc1ccc(Cn2nc(O)c3[nH]c4cc(Cl)ccc4c(=O)c3c2=O)cc1)N1CCCC1` [Ex. 13, 7-chloro-4-hydroxy-2-(4pyrrolidinylcarboxamide)phenylmethyl-1,2,5,10-tetrahydropyridazino[4,5-b]quinoline-1,10-dione], for which the inhibition constant (Ki) in test [1] (setting [4]) was determined as 0.0675 µM.
For `O=C(Nc1ccccc1)Nc1cccc(Cn2nc(O)c3[nH]c4cc(Cl)ccc4c(=O)c3c2=O)c1` [Ex. 18, 7-chloro-4-hydroxy-2-(3-phenylaminocarboxamide)phenylmethyl-1,2,5,10-tetrahydropyridazino[4,5-b]quinoline-1,10-dione], in test [1] (setting [4]), the affinity, expressed as Ki, was 0.0799 µM.
Turning to `COCCN(CCOC)C(=O)c1cccc(Cn2nc(O)c3[nH]c4cc(Cl)ccc4c(=O)c3c2=O)c1` [Ex. 27, 7-Chloro-4-hydroxy-2-[3-(di-(2-methoxy)ethyl)aminocarbonylbenzyl]-1,2,5,10-tetrahydropyridazino[4,5-b]quinoline-1,10-dione], in test [1] (setting [4]), the Ki stood at 0.191 µM.
In test [1] (setting [4]), `O=c1c2ccc(Cl)cc2[nH]c2c(O)nn(Cc3ccc(C#CCO)cc3)c(=O)c12` [Ex. 21] returned an inhibition constant Ki of 0.001 µM.
In test [1] (setting [4]), `O=C(c1ccc(Cn2nc(O)c3[nH]c4cc(Cl)ccc4c(=O)c3c2=O)cc1)N1CCOCC1` [Ex. 29, 7-Chloro-4-hydroxy-2-[4-(morpholine-4-carbonyl)-benzyl]-1,2,5,10-tetrahydropyridazino[4,5-b]quinoline-1,10-dione] registered an inhibitory constant (Ki) of 0.088 µM.
Turning to `O=C(Nc1cccc(Cn2nc(O)c3[nH]c4cc(Cl)ccc4c(=O)c3c2=O)c1)NC1CCCCC1` [Ex. 19, 7-chloro-4-hydroxy-2-(3-cyclohexylaminocarboxamide)phenylmethyl-1,2,5,10-tetrahydropyridazino[4,5-b]quinoline-1,10-dione], in test [1] (setting [4]), the Ki is 0.0333 µM.
In test [1] (setting [4]), `CON(C)C(=O)c1cccc(Cn2nc(O)c3[nH]c4cc(Cl)ccc4c(=O)c3c2=O)c1` yielded a Ki of 0.065 µM.
Consider `O=C(NCc1ccco1)c1ccc(Cn2nc(O)c3[nH]c4cc(Cl)ccc4c(=O)c3c2=O)cc1` [Ex. 3, 7-Chloro-4hydroxy-2-(4-(furan-2-ylmethyl)aminocarbonyl)-benzyl-1,2,5,10-tetrahydropyridazino[4,5-b]quinoline-1,10-dione], for which, in test [2], the “Test C (% Inh.): percent decrease in hyperalgesia” value came out at 96% and the “Test C MED (minimum effective dose)” value came out at 30 mg/kg/day. In test [1], this compound displayed a Ki of 0.153 µM. In test [3] (first phase (0-5 min)), the “Test B First phase Dose (% Inh.): % inhibition of nociceptive response” value was 200 (33%). For the same compound, the “Test B Second phase Dose (% Inh.): % inhibition of nociceptive response” value in test [3] (second phase (20-35 min)) is given as 200 (−18%).
`CC(C)OC(=O)c1ccc(Cn2nc(O)c3[nH]c4cc(Cl)ccc4c(=O)c3c2=O)cc1` [Ex. 9, 7-Chloro-4-hydroxy-2-(4-iso-propoxycarbonylbenzyl)-1,2,5,10-tetrahydropyridazino[4,5-b]quinoline-1,10-dione] had an inhibition constant Ki in test [1] (setting [4]) of 0.091 µM.
`O=c1c2ccc(Cl)cc2[nH]c2c(O)nn(Cc3ccc4nc[nH]c4c3)c(=O)c12` [Ex. 5, 7-Chloro-4-hydroxy-2-(benzimidazol-5-ylmethyl)-1,2,5,10-tetrahydropyridazino[4,5-b]quinoline-1,10-dione methanesulfonate]: the Ki in test [1] (setting [4]) turned out to be 0.117 µM.
`O=C(Nc1cccc(Cn2nc(O)c3[nH]c4cc(Cl)ccc4c(=O)c3c2=O)c1)N1CCCC1` [Ex. 15, 7-Chloro-4-hydroxy-2-(3-pyrrolidinylcarboxamide)phenylmethyl-1,2,5,10-tetrahydropyridazino[4,5-b]quinoline-1,10-dione] registered an inhibition constant Ki in test [1] (setting [4]) of 0.0156 µM.
As to `Cc1cc(Cn2nc(O)c3[nH]c4cc(Cl)ccc4c(=O)c3c2=O)ccc1O` [Ex. 6, 7-Chloro-4-hydroxy-2-(4-hydroxy-3-methyl-benzyl)-1,2,5,10-tetrahydropyridazino[4,5-b]quinoline-1,10-dione], in test [1] (setting [4]), the inhibitory constant (Ki) is 0.0679 µM and 0.0625 µM.
On to `O=c1c2ccc(Cl)cc2[nH]c2c(O)nn(Cc3ccc(I)cc3)c(=O)c12` [Ex. 20, 7-Chloro-4-hydroxy-2-(4-iodophenylmethyl)-1,2,5,10-tetrahydropyridazino[4,5-b]quinoline-1,10-dione], for which the inhibition constant Ki in test [1] (setting [4]) was 0.199 µM.
